Assay results taken from paper PMC9254247, “Dual-sensitive antibacterial peptide nanoparticles prevent dental caries” (Theranostics, 2022).

System: S. mutans UA159 biofilm
Assay: Minimum biofilm inhibition concentration (MBIC50), MTT
Type: cell-based, Streptococcus mutans
Conditions: 24 h
Method: Characterization analysis of pHly -1 NPs at different pHs. The morphology of pHly-1 NPs at pH 4.5 and 7.0were analyzed by TEM and AFM, respectively 3,4. TEM images were taken by a Tecnai G2 F20 microscope with an accelerating voltage of 100 kV. The final concentration of TEM samples of pHly -1 NPs was 100 μM. An 8 μL TEM sample was pipetted onto the carbon-coated copper grid surface for 3 min and removed by filter paper. Then, 8 μ L of 2 wt % uranyl acetate was dripped onto the grid for staining 3 min. After removing the droplet with filter paper, the grid was dried in a desiccator before measurement. […]
The secondary structure of pHly-1 NPs in different solutions at pH 4.5 and 7.0 was determined by Jasco-810 spectropolarimeter using 2 mm quartz slides at 25 °C.
According to the method reported in the literature5 to prepare l iposome required in the secondary structure test. […] All spectra were recorded with a wavelength interval of 0.5 nm. […] In addition, Zeta (ζ ) potentials and hydrodynamic sizes of pHly-1 NPs were measured using a Zetasizer (Malvern Instruments, UK). […]
RNA- seq Analysis. […] T he quality and quantity of the RNA were assessed by NanoDrop 2000/2000c (Thermo Scientific, Wilmington, DE, USA). RNA integrity number (RIN) was analyzed by Agilent 2100 Bioanalyzer (Agilent Technologies, Santa Clara, CA, USA). […] The cleaned reads were mapped to the S.mutans reference genome using Rockhooper26. […]

With `[H]/N=C(\N/C(=N/[H])NCCCCCCNC(=N)NC(=N)Nc1ccc(Cl)cc1)Nc1ccc(Cl)cc1` [CHX, chlorhexidine] the MBIC50 (pH 5.5, BHI with 1% sucrose) was 0.6 µM and the MBIC50 (pH 7.0, BHI with 1% sucrose) was 0.8 µM.
